Values quoted from earlier work as cited in article PMC3807987 (Pharmacognosy Research, 2013).
Read-outs that look alike come from different tables or passages of the source.

Test system: CYP2D6

For `CN[C@H]1CC[C@@H](c2ccc(Cl)c(Cl)c2)c2ccccc21` [Sertraline], the CYP2D6 inhibition strength (dose of 50 mg) is given as “mild inhibitor” and the CYP2D6 inhibition strength (dose of 200 mg) is given as “potent inhibitor”.
